Assay results published in patent US10681909B2, “Herbicidal triazoles” (FMC Corporation, priority 2014, dated 2020).

Tests used:
chickweed = experiment: Test C postemergence; format: in vivo, Stellaria media
Procedure, shortened: (§1)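 Pre: seeded into loam/sand, sprayed same time. Post: plants in peat moss–vermiculite mix with starter nutrients and dolomitic limestone, treated at 1- to 4-leaf stage (2 to 18 cm). Formulation: non-phytotoxic solvent blend plus surfactant.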

corn = experiment: Test A postemergence; format: in vivo, Zea mays; conditions: Zea mays, post-emergence, 240 h, 0 to 100 scale (0 no effect, 100 complete control), approx. 10 d
Procedure, shortened: (§2)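 Loam/sand soil mix; compound in non-phytotoxic solvent + surfactant. Pre: directed soil spray right after planting seed. Post: potted plants 2–10 cm, 1–2 leaf stage, sprayed with same formulation.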

ragweed = experiment: Test C postemergence; format: in vivo, Ambrosia elatior
Procedure, shortened: as §1

rice = experiment: Test B flooded paddy test; format: in vivo, Oryza sativa; conditions: Oryza sativa, 360 h, 125 g ai/ha, applied to paddy water at 2-leaf stage, visual rating after 13 to 15 d, scale 0 (no effect) to 100 (complete control), read-out: Plant response rating, Rice, Flood
Procedure, shortened: (§3)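 Pots were flooded to 3 cm above the soil at treatment, and compounds were applied directly into the paddy water. That depth was held throughout. After 13 to 15 d in a greenhouse, plants were rated visually against untreated controls.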

lambsquarters = experiment: Test C postemergence; format: in vivo, Chenopodium album
Procedure, shortened: as §1

ducksalad = experiment: Test B flooded paddy test; format: in vivo, Heteranthera limosa; conditions: Heteranthera limosa, 360 h, 125 g ai/ha, applied to paddy water at 2-leaf stage, visual rating after 13 to 15 d, scale 0 (no effect) to 100 (complete control), read-out: Plant response rating, Ducksalad, Flood
Procedure, shortened: as §3

pigweed [1] = experiment: Test C postemergence; format: in vivo, Amaranthus retroflexus
Procedure, shortened: as §1

wheat = experiment: Test A preemergence; format: in vivo, Triticum aestivum; conditions: Triticum aestivum, pre-emergence, 240 h, 0 to 100 scale (0 no effect, 100 complete control), read-out: Plant response rating, Wheat
Procedure, shortened: as §2

barnyardgrass = experiment: Test B flooded paddy test; format: in vivo, Echinochloa crus-galli; conditions: Echinochloa crus-galli, 360 h, 125 g ai/ha, applied to paddy water at 2-leaf stage, visual rating after 13 to 15 d, scale 0 (no effect) to 100 (complete control), read-out: Plant response rating, Barnyardgrass, Flood
Procedure, shortened: as §3

foxtail, giant = experiment: Test C postemergence; format: in vivo, Setaria faberii
Procedure, shortened: as §1

pigweed [2] = experiment: Test A preemergence; format: in vivo, Amaranthus retroflexus; conditions: Amaranthus retroflexus, pre-emergence, 240 h, 0 to 100 scale (0 no effect, 100 complete control), read-out: Plant response rating, Pigweed
Procedure, shortened: as §2

oat, wild = experiment: Test C postemergence; format: in vivo, Avena fatua
Procedure, shortened: as §1

soybean = experiment: Test C postemergence; format: in vivo, Glycine max
Procedure, shortened: as §1

wheat (winter wheat) = experiment: Test C postemergence; format: in vivo, Triticum aestivum
Procedure, shortened: as §1

Compound: CCc1nc(-c2ccc(C(F)(F)F)cc2)nn1Cc1ccnc(C(F)(F)F)c1 [Compound 1, 4-[[5-ethyl-3-[4-(trifluoromethyl)phenyl]-1H-1,2,4-triazol-1-yl]methyl]-2-(trifluoromethyl)pyridine]
- Plant response rating (scale of 0 to 100 where 0 is no effect and 100 is complete control) (chickweed; 31 g ai/ha): 60
- Plant response rating (scale of 0 to 100 where 0 is no effect and 100 is complete control) (chickweed; 62 g ai/ha): 85
- Plant response rating (scale of 0 to 100 where 0 is no effect and 100 is complete control) (chickweed; 125 g ai/ha): 85
- Plant response rating (scale of 0 to 100 where 0 is no effect and 100 is complete control) (chickweed; 250 g ai/ha): 95
- Corn plant response rating (crop injury, 0 = no effect, 100 = complete kill) at 125 g/ha (corn; 125 g ai/ha): 30%
- Corn plant response rating (crop injury, 0 = no effect, 100 = complete kill) at 500 g/ha (corn; 500 g ai/ha): 80%
- Plant response rating (scale of 0 to 100 where 0 is no effect and 100 is complete control) (ragweed; 31 g ai/ha): 60
- Plant response rating (scale of 0 to 100 where 0 is no effect and 100 is complete control) (ragweed; 62 g ai/ha): 70
- Plant response rating (scale of 0 to 100 where 0 is no effect and 100 is complete control) (ragweed; 125 g ai/ha): 75
- Plant response rating (scale of 0 to 100 where 0 is no effect and 100 is complete control) (ragweed; 250 g ai/ha): 80
- plant injury at 125 g/ha (rice): 25%
- Plant response rating (scale of 0 to 100 where 0 is no effect and 100 is complete control) (lambsquarters; 31 g ai/ha): 70
- Plant response rating (scale of 0 to 100 where 0 is no effect and 100 is complete control) (lambsquarters; 62 g ai/ha): 70
- Plant response rating (scale of 0 to 100 where 0 is no effect and 100 is complete control) (lambsquarters; 125 g ai/ha): 75
- Plant response rating (scale of 0 to 100 where 0 is no effect and 100 is complete control) (lambsquarters; 250 g ai/ha): 80
- pest or weed control at 125 g/ha (ducksalad): 20%
- Plant response rating (scale of 0 to 100 where 0 is no effect and 100 is complete control) (pigweed [1]; 31 g ai/ha): 50
- Plant response rating (scale of 0 to 100 where 0 is no effect and 100 is complete control) (pigweed [1]; 62 g ai/ha): 98
- Plant response rating (scale of 0 to 100 where 0 is no effect and 100 is complete control) (pigweed [1]; 125 g ai/ha): 98
- Plant response rating (scale of 0 to 100 where 0 is no effect and 100 is complete control) (pigweed [1]; 250 g ai/ha): 100
- plant injury at 125 g/ha (wheat; 125 g ai/ha): 20%
- plant injury at 500 g/ha (wheat; 500 g ai/ha, approx. 10 d): 30%
- pest or weed control at 125 g/ha (barnyardgrass): 40%
- Plant response rating (scale of 0 to 100 where 0 is no effect and 100 is complete control) (foxtail, giant; 31 g ai/ha): 35
- Plant response rating (scale of 0 to 100 where 0 is no effect and 100 is complete control) (foxtail, giant; 62 g ai/ha): 35
- Plant response rating (scale of 0 to 100 where 0 is no effect and 100 is complete control) (foxtail, giant; 125 g ai/ha): 55
- Plant response rating (scale of 0 to 100 where 0 is no effect and 100 is complete control) (foxtail, giant; 250 g ai/ha): 55
- pest or weed control at 125 g/ha (pigweed [2]; 125 g ai/ha): 100%
- pest or weed control at 500 g/ha (pigweed [2]; 500 g ai/ha, approx. 10 d): 100%
- Plant response rating (scale of 0 to 100 where 0 is no effect and 100 is complete control) (oat, wild; 31 g ai/ha): 5
- Plant response rating (scale of 0 to 100 where 0 is no effect and 100 is complete control) (oat, wild; 62 g ai/ha): 10
- Plant response rating (scale of 0 to 100 where 0 is no effect and 100 is complete control) (oat, wild; 125 g ai/ha): 15
- Plant response rating (scale of 0 to 100 where 0 is no effect and 100 is complete control) (oat, wild; 250 g ai/ha): 25
- Plant response rating (scale of 0 to 100 where 0 is no effect and 100 is complete control) (soybean; 31 g ai/ha): 20
- Plant response rating (scale of 0 to 100 where 0 is no effect and 100 is complete control) (soybean; 62 g ai/ha): 35
- Plant response rating (scale of 0 to 100 where 0 is no effect and 100 is complete control) (soybean; 125 g ai/ha): 50
- Plant response rating (scale of 0 to 100 where 0 is no effect and 100 is complete control) (soybean; 250 g ai/ha): 50
- Plant response rating (scale of 0 to 100 where 0 is no effect and 100 is complete control) (wheat (winter wheat); 31 g ai/ha): 10
- Plant response rating (scale of 0 to 100 where 0 is no effect and 100 is complete control) (wheat (winter wheat); 62 g ai/ha): 10
- Plant response rating (scale of 0 to 100 where 0 is no effect and 100 is complete control) (wheat (winter wheat); 125 g ai/ha): 15
- Plant response rating (scale of 0 to 100 where 0 is no effect and 100 is complete control) (wheat (winter wheat); 250 g ai/ha): 20
